Experimental data: PMC8609999, “A Phase I trial of talazoparib in patients with advanced hematologic malignancies” (International Journal of Hematologic Oncology, 2021)
Read-outs that look alike come from different tables or passages of the source. Marks after values point to notes of the source that are not given here.

System: patients with advanced hematologic malignancies (cohort 1: AML/MDS; cohort 2: CLL/MCL)
Type: in vivo, human
Description: AEs were coded in accordance with The Medical Dictionary for Regulatory Activities, version 16.1. Treatment-emergent AEs (TEAEs) were defined as AEs that were new, increased in frequency, or worsened in severity, after the first talazoparib dose. AEs counted as drug-related had been classified by investigators as possibly or probably related to talazoparib.
All analyses in this open-label, dose-finding study were descriptive in nature. Descriptive summaries of continuous variables, including the mean, standard deviation (SD), median, range, and, where appropriate, 95% CI and/or interquartile range, were determined using the Statistical Analysis Software (SAS), version 9.2. Descriptive summaries of categorical variables included the number of patients and percentages. Data were summarized with respect to the dose level at which the patients started treatment. Cohorts were defined as all patients who began treatment at a given dose level.

## Cn1ncnc1[C@H]1c2n[nH]c(=O)c3cc(F)cc(c23)N[C@@H]1c1ccc(F)cc1 [talazoparib]
Cohort 1, 0.10 mg/day (n = 3)
  Any study drug-related AEs of CTCAE Grade 5 (death): 0 (0.0) n (%)
Cohort 1, 0.20 mg/day (n = 3)
  Any AEs of CTCAE Grade of 5 (death): 2 (66.7) n (%)
  Any study drug-related AEs of CTCAE Grade 5 (death): 0 (0.0) n (%)
Cohort 1, 0.30 mg/day (n = 5)
  Any AEs of CTCAE Grade of 5 (death): 1 (20.0) n (%)
  Any study drug-related AEs of CTCAE Grade 5 (death): 0 (0.0) n (%)
Cohort 1, 0.45 mg/day (n = 3)
  Any AEs of CTCAE Grade of 5 (death): 2 (66.7) n (%)
  Any study drug-related AEs of CTCAE Grade 5 (death): 0 (0.0) n (%)
Cohort 1, 0.90 mg/day (n = 4)
  Any AEs of CTCAE Grade of 5 (death): 3 (75.0) n (%)
  Any study drug-related AEs of CTCAE Grade 5 (death): 0 (0.0) n (%)
Cohort 1, 1.35 mg/day (n = 3)
  Any AEs: 3 (100) n (%)
  Any AEs leading to dose interruption or modification: 0 (0.0) n (%)
  Any AEs leading to study drug withdrawn: 0 (0.0) n (%)
  Any AEs of CTCAE Grade 3 or 4: 3 (100) n (%)
  Any AEs of CTCAE Grade of 5 (death): 1 (33.3) n (%)
  Any SAEs: 2 (66.7) n (%)
  Any SAEs of CTCAE Grade of 3 or 4: 2 (66.7) n (%)
  Any study drug-related AEs: 3 (100) n (%)
  Any study drug-related AEs leading to dose interruption or modification: 0 (0.0) n (%)
  Any study drug-related AEs leading to study drug withdrawal: 0 (0.0) n (%)
  Any study drug-related AEs of CTCAE Grade 5 (death): 0 (0.0) n (%)
  Any study drug-related AEs of CTCAE Grade of 3 or 4: 2 (66.7) n (%)
  Any study drug-related SAEs: 0 (0.0) n (%)
Cohort 1, 2.00 mg/day (n = 4)
  Any AEs of CTCAE Grade of 5 (death): 3 (75.0) n (%)
  Any study drug-related AEs of CTCAE Grade 5 (death): 1 (25.0)^§ n (%)
Cohort 1, All (n = 25)
  Any AEs of CTCAE Grade of 5 (death): 12 (48.0) n (%)
  Any study drug-related AEs of CTCAE Grade 5 (death): 1 (4.0)^§ n (%)
Cohort 2, 0.10 mg/day (n = 3)
  Any AEs of CTCAE Grade of 5 (death): 1 (33.3) n (%)
  Any study drug-related AEs of CTCAE Grade 5 (death): 0 (0.0) n (%)
Cohort 2, 0.90 mg/day (n = 5)
  Any AEs of CTCAE Grade of 5 (death): 0 (0.0) n (%)
  Any study drug-related AEs of CTCAE Grade 5 (death): 0 (0.0) n (%)
Cohort 2, All (n = 8)
  Any AEs of CTCAE Grade of 5 (death): 1 (12.5) n (%)
  Any study drug-related AEs of CTCAE Grade 5 (death): 0 (0.0) n (%)
Both cohorts, N = 33, during study or within 30 days after last dose
  Deaths: 39.4%
human, in vivo
  Patients with Grade 3/4 TEAEs: 84.8%
  Patients with TEAEs leading to dose interruption/reduction related to study drug: 30.3%
  Patients with a Grade 3/4 SAE: 51.5%
  Patients with a drug-related SAE: 9.1%
  Patients with at least one TEAE leading to dose interruption and/or reduction: 45.5%
  Patients with drug-related Grade 3/4 TEAEs: 42.4%
  Patients with drug-related TEAEs (possibly or probably related): 69.7%
  Patients with serious AEs (SAEs): 75.8%
N = 33, All grades (Grade 1–4 only)
  TEAE: Fatigue: 13 (39.4) n (%)
